According to US20010007152A1, “RECOMBINANT CONSTRUCTS ENCODING T CELL RECEPTORS SPECIFIC FOR HUMAN HLA-RESTRICTED TUMOR ANTIGENS” (priority 1996, published 2001):

What was measured:
[1] = molecular target: T1, HLA A2.1 (UniProt P01901+P04439, D140Y/D185E/D98H/E176V/G131W/I119V/I121R/I166T/N151K/N90K/Q86G/Q94H/R138H/R169H); experiment: Competition assay: inhibition of influenza matrix peptide M1 (58-66) binding to A2.1, read as inhibition of lysis by an M1-specific CTL clone; parameters: species or system human; details: test peptide 10 μg vs influenza matrix peptide 0.1 μg; T2-A2.1/K^b target cells
T1 construct: expressed in transfected cells; host or cells: T2-A2.1/K^b cells
Procedure: Briefly, each test peptide (10 μg) was incubated with radiolabeled target cells (T2-A2.1/K^b, 10^6 target cells labeled with […] ^51Cr at 37° for 1.5 hours) in the presence of an influenza virus matrix protein (0.1 μg). The ability of these peptides to inhibit the binding of the influenza matrix protein peptide MI (58-66) to A2.1 was measured by inhibition of lysis by an M1 (58-66) specific, A2.1 restricted CTL clone.

[2] = system: SAOS.175; experiment: Lysis of tumor cells by peptide-specific CTL; assay type: cell-based, human; details: 6 hours; for Killing of tumor (lysis): SAOS.175, osteosarcoma, A2 +, Her-2 +, no cytokine preincubation; for Killing of tumor (lysis) + CYT: SAOS.175, tumor preincubated 24 hours with 20 ng/ml γ-IFN and 3 ng/ml TNF-α
[3] = system: CASKI; experiment: Lysis of tumor cells by peptide-specific CTL; assay type: cell-based, human; details: 6 hours; for Killing of tumor (lysis) + CYT: tumor preincubated 24 hours with 20 ng/ml γ-IFN and 3 ng/ml TNF-α; for Killing of tumor (lysis): cervix, A2 +, Her-2 +, no cytokine preincubation
[4] = system: OVCAR-5; experiment: Lysis of tumor cells by peptide-specific CTL; assay type: cell-based, human; details: 6 hours; for Killing of tumor (lysis): OVCAR-5, ovarian, A2 +, Her-2 +, no cytokine preincubation; for Killing of tumor (lysis) + CYT: OVCAR-5, tumor preincubated 24 hours with 20 ng/ml γ-IFN and 3 ng/ml TNF-α
[5] = system: T98G; experiment: Lysis of tumor cells by peptide-specific CTL; assay type: cell-based, human; details: 6 hours; for Killing of tumor (lysis) + CYT: tumor preincubated 24 hours with 20 ng/ml γ-IFN and 3 ng/ml TNF-α; for Killing of tumor (lysis): glioblastoma, A2 +, Her-2 +, no cytokine preincubation
[6] = system: LG-2; experiment: Lysis of tumor cells by peptide-specific CTL; assay type: cell-based, human; details: 6 hours; for Killing of tumor (lysis): LG-2, EBV-trans., A2 +, Her-2 −, no cytokine preincubation; for Killing of tumor (lysis) + CYT: LG-2, tumor preincubated 24 hours with 20 ng/ml γ-IFN and 3 ng/ml TNF-α
[7] = system: Hep-G2; experiment: Lysis of tumor cells by peptide-specific CTL; assay type: cell-based, human; details: 6 hours; for Killing of tumor (lysis): Hep-G2, hepatoma, A2 +, Her-2 +, no cytokine preincubation; for Killing of tumor (lysis) + CYT: Hep-G2, tumor preincubated 24 hours with 20 ng/ml γ-IFN and 3 ng/ml TNF-α
[8] = system: JY; experiment: Lysis of tumor cells by peptide-specific CTL; assay type: cell-based, human; details: 6 hours; for Killing of tumor (lysis) + CYT: tumor preincubated 24 hours with 20 ng/ml γ-IFN and 3 ng/ml TNF-α; for Killing of tumor (lysis): lymphoma, A2 +, Her-2 −, no cytokine preincubation
[9] = system: MDA.MB231; experiment: Lysis of tumor cells by peptide-specific CTL; assay type: cell-based, human; details: 6 hours; for Killing of tumor (lysis): MDA.MB231, breast, A2 +, Her-2 +, no cytokine preincubation; for Killing of tumor (lysis) + CYT: MDA.MB231, tumor preincubated 24 hours with 20 ng/ml γ-IFN and 3 ng/ml TNF-α
[10] = system: MDA.MB435; experiment: Lysis of tumor cells by peptide-specific CTL; assay type: cell-based, human; details: 6 hours; for Killing of tumor (lysis): MDA.MB435, breast, A2 −, Her-2 +, no cytokine preincubation; for Killing of tumor (lysis) + CYT: MDA.MB435, tumor preincubated 24 hours with 20 ng/ml γ-IFN and 3 ng/ml TNF-α
[11] = system: U2-OS; experiment: Lysis of tumor cells by peptide-specific CTL; assay type: cell-based, human; details: 6 hours; for Killing of tumor (lysis) + CYT: tumor preincubated 24 hours with 20 ng/ml γ-IFN and 3 ng/ml TNF-α; for Killing of tumor (lysis): osteosarcoma, A2 +, Her-2 +, no cytokine preincubation
[12] = system: NCl.H1355; experiment: Lysis of tumor cells by peptide-specific CTL; assay type: cell-based, human; details: 6 hours; for Killing of tumor (lysis): NCl.H1355, lung, A2 +, Her-2 +, no cytokine preincubation; for Killing of tumor (lysis) + CYT: NCl.H1355, tumor preincubated 24 hours with 20 ng/ml γ-IFN and 3 ng/ml TNF-α
[13] = system: U87G; experiment: Lysis of tumor cells by peptide-specific CTL; assay type: cell-based, human; details: 6 hours; for Killing of tumor (lysis) + CYT: tumor preincubated 24 hours with 20 ng/ml γ-IFN and 3 ng/ml TNF-α; for Killing of tumor (lysis): glioblastoma, A2 +, Her-2 −, no cytokine preincubation
[14] = system: SW480; experiment: Lysis of tumor cells by peptide-specific CTL; assay type: cell-based, human; details: 6 hours; for Killing of tumor (lysis): SW480, colon, A2 +, Her-2 +, no cytokine preincubation; for Killing of tumor (lysis) + CYT: SW480, tumor preincubated 24 hours with 20 ng/ml γ-IFN and 3 ng/ml TNF-α
[15] = system: MALME-3M; experiment: Lysis of tumor cells by peptide-specific CTL; assay type: cell-based, human; details: 6 hours; for Killing of tumor (lysis) + CYT: tumor preincubated 24 hours with 20 ng/ml γ-IFN and 3 ng/ml TNF-α; for Killing of tumor (lysis): melanoma, A2 +, Her-2 +, no cytokine preincubation
[16] = system: BT549; experiment: Lysis of tumor cells by peptide-specific CTL; assay type: cell-based, human; details: 6 hours; for Killing of tumor (lysis): BT549, breast, A2 +, Her-2 +, no cytokine preincubation; for Killing of tumor (lysis) + CYT: BT549, tumor preincubated 24 hours with 20 ng/ml γ-IFN and 3 ng/ml TNF-α
[17] = system: SKMEL-5; experiment: Lysis of tumor cells by peptide-specific CTL; assay type: cell-based, human; details: 6 hours; for Killing of tumor (lysis): SKMEL-5, melanoma, A2 +, Her-2 +, no cytokine preincubation; for Killing of tumor (lysis) + CYT: SKMEL-5, tumor preincubated 24 hours with 20 ng/ml γ-IFN and 3 ng/ml TNF-α
[18] = system: ST486; experiment: Lysis of tumor cells by peptide-specific CTL; assay type: cell-based, human; details: 6 hours; for Killing of tumor (lysis): ST486, lymphoma, A2 +, Her-2 −, no cytokine preincubation; for Killing of tumor (lysis) + CYT: ST486, tumor preincubated 24 hours with 20 ng/ml γ-IFN and 3 ng/ml TNF-α
[19] = system: SV80; experiment: Lysis of tumor cells by peptide-specific CTL; assay type: cell-based, human; details: 6 hours; for Killing of tumor (lysis): SV80, fibroblast, A2 +, Her-2 −, no cytokine preincubation; for Killing of tumor (lysis) + CYT: SV80, tumor preincubated 24 hours with 20 ng/ml γ-IFN and 3 ng/ml TNF-α
[20] = system: MCF-7; experiment: Lysis of tumor cells by peptide-specific CTL; assay type: cell-based, human; details: 6 hours; for Killing of tumor (lysis): MCF-7, breast, A2 +, Her-2 +, no cytokine preincubation; for Killing of tumor (lysis) + CYT: MCF-7, tumor preincubated 24 hours with 20 ng/ml γ-IFN and 3 ng/ml TNF-α

DLVDAEEYL [H23, Her-2/neu peptide 1016-1024]
% INHIBITION [1]: 35%

VMAGVGSPYV [H7]
Killing of tumor (lysis) [2]: 27% | Killing of tumor (lysis) + CYT [2]: 35 | Killing of tumor (lysis) + CYT [3]: 20 | Killing of tumor (lysis) [3]: 9% | Killing of tumor (lysis) [4]: 13% | Killing of tumor (lysis) + CYT [4]: 23 | Killing of tumor (lysis) + CYT [5]: 93 | Killing of tumor (lysis) [5]: 29% | Killing of tumor (lysis) [6]: 1% | Killing of tumor (lysis) + CYT [6]: 3 | Killing of tumor (lysis) [7]: 4% | Killing of tumor (lysis) + CYT [7]: 29 | Killing of tumor (lysis) + CYT [8]: 2 | Killing of tumor (lysis) [8]: 4% | Killing of tumor (lysis) [9]: 26% | Killing of tumor (lysis) + CYT [9]: 89 | Killing of tumor (lysis) [10]: 1% | Killing of tumor (lysis) + CYT [10]: 1 | Killing of tumor (lysis) + CYT [11]: 62 | Killing of tumor (lysis) [11]: 30% | % INHIBITION [1]: 55% | Killing of tumor (lysis) [12]: 13% | Killing of tumor (lysis) + CYT [12]: 62 | Killing of tumor (lysis) + CYT [13]: 1 | Killing of tumor (lysis) [13]: 1% | Killing of tumor (lysis) [14]: 2% | Killing of tumor (lysis) + CYT [14]: 17 | Killing of tumor (lysis) + CYT [15]: 14 | Killing of tumor (lysis) [15]: 4% | Killing of tumor (lysis) [16]: 2% | Killing of tumor (lysis) + CYT [16]: 36 | Killing of tumor (lysis) [17]: 16% | Killing of tumor (lysis) + CYT [17]: 40 | Killing of tumor (lysis) [18]: 5% | Killing of tumor (lysis) + CYT [18]: 8 | Killing of tumor (lysis) [19]: 2% | Killing of tumor (lysis) + CYT [19]: 2 | Killing of tumor (lysis) [20]: 7% | Killing of tumor (lysis) + CYT [20]: 40

VLQGLPREYV [H8, Her-2/neu peptide 546-555]
% INHIBITION [1]: 43%

ELVSEFSRM [H20, Her-2/neu peptide 971-979]
% INHIBITION [1]: 5%

KIPVAIKVL [H14, Her-2/neu peptide 747-755]
% INHIBITION [1]: 35%

RLLQETELV [H13]
% INHIBITION [1]: 56%

DLLEKGERL [H19, Her-2/neu peptide 933-941]
% INHIBITION [1]: 36%

TLSPGKNGV [H24, Her-2/neu peptide 1172-1180]
% INHIBITION [1]: 57%

KLVGKLNWA [HIV-9K, HIV POL peptide, known to be immunogenic, used as a control, reference compound]
Killing of tumor (lysis) [2]: 18% | Killing of tumor (lysis) + CYT [2]: 11 | Killing of tumor (lysis) + CYT [3]: 11 | Killing of tumor (lysis) [3]: 8% | Killing of tumor (lysis) [4]: 10% | Killing of tumor (lysis) + CYT [4]: 12 | Killing of tumor (lysis) + CYT [5]: 13 | Killing of tumor (lysis) [5]: 9% | Killing of tumor (lysis) [6]: 1% | Killing of tumor (lysis) + CYT [6]: 1 | Killing of tumor (lysis) [7]: 1% | Killing of tumor (lysis) + CYT [7]: 8 | Killing of tumor (lysis) + CYT [8]: 1 | Killing of tumor (lysis) [8]: 2% | Killing of tumor (lysis) [9]: 3% | Killing of tumor (lysis) + CYT [9]: 14 | Killing of tumor (lysis) [10]: 4% | Killing of tumor (lysis) + CYT [10]: 3 | Killing of tumor (lysis) + CYT [11]: 24 | Killing of tumor (lysis) [11]: 18% | Killing of tumor (lysis) [12]: 7% | Killing of tumor (lysis) + CYT [12]: 25 | Killing of tumor (lysis) + CYT [13]: 1 | Killing of tumor (lysis) [13]: 5% | Killing of tumor (lysis) [14]: 1% | Killing of tumor (lysis) + CYT [14]: 4 | Killing of tumor (lysis) + CYT [15]: 1 | Killing of tumor (lysis) [15]: 2% | Killing of tumor (lysis) [16]: 2% | Killing of tumor (lysis) + CYT [16]: 15 | Killing of tumor (lysis) [17]: 5% | Killing of tumor (lysis) + CYT [17]: 4 | Killing of tumor (lysis) [18]: 1% | Killing of tumor (lysis) + CYT [18]: 1 | Killing of tumor (lysis) [19]: 2% | Killing of tumor (lysis) + CYT [19]: 2 | Killing of tumor (lysis) [20]: 3% | Killing of tumor (lysis) + CYT [20]: 7

QLMPYGCLL [H16, Her-2/neu peptide 799-807]
% INHIBITION [1]: 50%

DIDETEYHA [H18, Her-2/neu peptide 871-879]
% INHIBITION [1]: 37%

TLQGLGISWL [H6, Her-2/neu peptide 444-453]
% INHIBITION [1]: 56%

LVSEFSRMA [H22, Her-2/neu peptide 972-980]
% INHIBITION [1]: 14%

VLVKSPNHV [H17, Her-2/neu peptide 851-859]
% INHIBITION [1]: 12%

ELVSEFSRMA [H21, Her-2/neu peptide 971-980]
% INHIBITION [1]: 25%

HLYQGOQW [H12]
% INHIBITION [1]: 15%
